Measurements as given in ChEMBL document CHEMBL4616647, “PTP1B-Inhibiting Branched-Chain Fatty Acid Dimers from Eremophila oppositifolia subsp. angustifolia Identified by High-Resolution PTP1B Inhibition Profiling and HPLC-PDA-HRMS-SPE-NMR Analysis” (J Nat Prod, 2020).
Activity calls are given as the source filed them. The calls are words filed in the database; no cut-off is given here.

How the values were obtained:
[1] = target: T1, Tyrosine-protein phosphatase non-receptor type 1 (Homo sapiens) (UniProt P18031); assay: Inhibition of human recombinant PTP1B (1 to 322 residues) expressed in Escherichia coli by HPLC-PDA-HRMS-SPE-NMR analysis
T1 sequence (whole entry): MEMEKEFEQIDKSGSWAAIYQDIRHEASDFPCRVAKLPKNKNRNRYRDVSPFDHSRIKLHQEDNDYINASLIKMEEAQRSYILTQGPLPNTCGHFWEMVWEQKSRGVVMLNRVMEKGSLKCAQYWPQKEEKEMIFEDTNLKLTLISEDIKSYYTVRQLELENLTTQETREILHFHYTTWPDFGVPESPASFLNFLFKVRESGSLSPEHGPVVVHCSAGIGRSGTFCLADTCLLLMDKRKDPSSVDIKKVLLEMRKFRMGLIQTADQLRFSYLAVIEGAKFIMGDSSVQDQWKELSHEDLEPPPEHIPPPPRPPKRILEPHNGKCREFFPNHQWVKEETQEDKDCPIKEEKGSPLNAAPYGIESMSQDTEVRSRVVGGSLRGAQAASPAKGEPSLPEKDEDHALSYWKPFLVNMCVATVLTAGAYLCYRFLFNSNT

[2] = target: T2, Tyrosine-protein phosphatase non-receptor type 1 (Homo sapiens, UniProt P18031); assay: Inhibition of human recombinant PTP1B (1 to 322 residues) expressed in Escherichia coli using pNPP as substrate preincubated for 10 mins followed by substrate addition and measured after every 30 secs for 10 mins by photometric method
T2 sequence (P18031 whole entry): T1 sequence (whole entry)

[3] = target: T2, Tyrosine-protein phosphatase non-receptor type 1; assay: Inhibition of PTP1B (unknown origin) using pNPP as substrate incubated for 30 mins by photometric method

Compound | inhibition [1] | IC50 [2] | IC50 [3]
CCCCCCC[C@@H]1[C@@H](/C(=C/C=C/C(=O)O)CO)[C@@H](/C=C/C(=O)O)C(COC(C)=O)=C[C@H]1CCCCCCC | Active | 30 µM | –
CCCCCCC[C@@H]1[C@@H](/C(=C/C=C/C(=O)O)COC(C)=O)[C@@H](/C=C/C(=O)O)C(COC(C)=O)=C[C@H]1CCCCCCC | Active | 12 µM | –
CCCCCCC/C=C/C(=C/C=C/C(=O)O)COC(C)=O | – | 484 µM | –
CCCCCCCCCCCCCCCC(=O)O [PALMITIC ACID] | – | – | 8.8 µM
CCCCCCC/C=C/C(=C\C=C\C(=O)O)COC(C)=O | – | 38 µM | –
CCCCCCC[C@H]1[C@H](/C(=C/C=C/C(=O)O)CO)[C@@H](/C=C/C(=O)O)C(COC(C)=O)=C[C@H]1CCCCCCC | Active | 2.4 µM | –
CCCCCCCCCCCCCCCCCC(=O)O [STEARIC ACID] | – | – | 2.3 µM
C=C(/C=C/CCCCCCC)CCCC(=O)O | – | 144 µM | –
CCCCCCCC/C=C\CCCCCCCCCC(=O)O | – | – | 1.4 µM
CCCCCCC/C=C/C(=C/C=C/C(=O)O)CO | – | 163 µM | –
CCCCCCC/C=C/C(C)=C/C=C/C(=O)O | – | 73 µM | –
CCCCCCC/C=C/C(=C/[C@H]1[C@H](C(=O)O)[C@H](CCCCCCC)C=C(COC(C)=O)[C@@H]1/C=C/C(=O)O)COC(=O)O | Active | 66 µM | –
CCCCCCC[C@@H]1[C@@H](/C(=C/C=C/C(=O)O)COC(C)=O)[C@@H](/C=C/C(=O)O)C(CO)=C[C@H]1CCCCCCC | Active | 24 µM | –
CCCCCCCCCCCCCCCCCCCC(=O)O [ARACHIDIC ACID] | – | – | 1.6 µM
CCCCCCC[C@H]1[C@H](/C(=C/C=C/C(=O)O)COC(C)=O)[C@@H](/C=C/C(=O)O)C(COC(C)=O)=C[C@H]1CCCCCCC | Active | 12 µM | –
CCCCCCCCCCCCCCCC(=O)C1=C(O)[C@@H](CO)OC1=O | – | 7.3 µM | –
CCCCCC/C=C\CCCCCCCC(=O)O [PALMITOLEIC ACID] | – | – | 6.4 µM
CCCCCCCC/C=C\CCCCCCCC(=O)O [OLEIC ACID] | – | – | 6.2 µM
